Test results reported in paper PMC3966854, “Probenecid Blocks Human P2X7 Receptor-Induced Dye Uptake via a Pannexin-1 Independent Mechanism” (PLoS ONE, 2014).

Assays:
Format in all cases: cell-based
human P2X7 receptor [1] = molecular target: T1, human P2X7 receptor (Homo sapiens, UniProt Q99572); test: ATP-induced ethidium dye uptake; complete block at […]; parameters: gene P2RX7; human P2X7 stably expressed in HEK-293 cells
T1 sequence (Q99572 1-595): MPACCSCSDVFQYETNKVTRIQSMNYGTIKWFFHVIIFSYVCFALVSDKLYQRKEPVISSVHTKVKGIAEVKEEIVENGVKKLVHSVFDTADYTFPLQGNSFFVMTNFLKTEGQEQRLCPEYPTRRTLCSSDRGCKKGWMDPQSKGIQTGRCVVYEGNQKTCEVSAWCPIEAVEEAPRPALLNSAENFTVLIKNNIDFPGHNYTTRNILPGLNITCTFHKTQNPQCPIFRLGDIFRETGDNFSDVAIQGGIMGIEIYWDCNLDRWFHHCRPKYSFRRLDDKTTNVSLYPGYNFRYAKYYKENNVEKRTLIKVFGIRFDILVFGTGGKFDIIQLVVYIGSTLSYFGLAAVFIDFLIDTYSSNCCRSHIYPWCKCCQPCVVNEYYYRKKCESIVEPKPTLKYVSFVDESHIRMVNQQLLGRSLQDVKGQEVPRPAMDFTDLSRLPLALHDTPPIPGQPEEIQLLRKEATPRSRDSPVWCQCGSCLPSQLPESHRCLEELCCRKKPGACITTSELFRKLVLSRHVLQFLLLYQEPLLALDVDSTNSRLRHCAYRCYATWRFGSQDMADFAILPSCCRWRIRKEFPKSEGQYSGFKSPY

rat P2X7 = molecular target: T2, rat P2X7 (Rattus norvegicus, UniProt Q64663); test: ATP-induced ethidium dye uptake, […] inhibition at […]; settings: read-out: % inhibition at 2.5 mM
T2 construct: gene P2rx7; rat P2X7 stably expressed in HEK-293 cells
T2 sequence (Q64663 1-595): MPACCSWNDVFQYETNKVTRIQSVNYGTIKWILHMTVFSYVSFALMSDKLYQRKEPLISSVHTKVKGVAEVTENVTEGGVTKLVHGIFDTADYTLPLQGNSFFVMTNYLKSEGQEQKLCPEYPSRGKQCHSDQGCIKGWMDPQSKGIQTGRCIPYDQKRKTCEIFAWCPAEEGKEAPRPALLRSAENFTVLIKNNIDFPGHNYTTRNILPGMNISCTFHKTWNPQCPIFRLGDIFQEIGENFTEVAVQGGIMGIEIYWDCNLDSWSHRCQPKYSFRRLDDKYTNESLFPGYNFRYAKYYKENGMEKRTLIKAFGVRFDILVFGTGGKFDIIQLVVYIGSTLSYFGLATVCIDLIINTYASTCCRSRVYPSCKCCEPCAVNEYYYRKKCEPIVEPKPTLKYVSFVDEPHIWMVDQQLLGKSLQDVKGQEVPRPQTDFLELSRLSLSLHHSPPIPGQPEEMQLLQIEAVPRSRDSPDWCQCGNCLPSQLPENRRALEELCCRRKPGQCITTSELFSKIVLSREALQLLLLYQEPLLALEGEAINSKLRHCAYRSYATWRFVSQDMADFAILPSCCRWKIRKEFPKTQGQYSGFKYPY

human P2X7 receptor [2] = molecular target: T1, human P2X7 receptor; test: whole-cell patch clamp, Fluo-4 calcium influx and ethidium dye uptake (IC50 from dye uptake, […] ATP); parameters: gene P2RX7; wild-type human P2X7 stably expressed in HEK-293 cells
human P2X7 receptor [3] = molecular target: T1, human P2X7 receptor; test: Fluo-4 calcium influx and ethidium dye uptake; complete block at […]; parameters: gene P2RX7; human P2X7 stably expressed in HEK-293 cells

O=C1CSC(=O)N1C(CCc1ccncc1)COc1ccc(-c2cccc([N+](=O)[O-])c2)cc1 (stereo not shown) [AZ11645373]
ATP-induced ethidium dye uptake; complete block at 10 μM (human P2X7 receptor [1]): 10 µM

CCCN(CCC)S(=O)(=O)c1ccc(C(=O)O)cc1 [PRO, Probenecid]
inhibition at 2500 µM (rat P2X7): 34% | IC50 (human P2X7 receptor [2]): 203 µM

Clc1cccc(-c2nnnn2Cc2cccnc2)c1Cl [A-438079]
Fluo-4 calcium influx and ethidium dye uptake; complete block at 10 μM (human P2X7 receptor [3]): 10 µM
